From publication PMC4444576, “Prospective performance evaluation of selected common virtual screening tools. Case study: Cyclooxygenase (COX) 1 and 2” (European Journal of Medicinal Chemistry, 2015)
Where two headings read alike, the source gives them in different places.

How the values were obtained:
[1] = target: T1, ram seminal vesicle COX-1 (Ovis aries, UniProt P05979); assay: COX-1 inhibition assay (PGE2 EIA); format: biochemical; conditions: for inhibition at 20 µM: read-out: % inhibition at 20µM, COX-1
T1 construct: ram seminal vesicle COX-1 (1 U) (Sigma–Aldrich); purchased Sigma–Aldrich; host or cells: ram seminal vesicle (tissue of origin)
T1 sequence (P05979 25-600): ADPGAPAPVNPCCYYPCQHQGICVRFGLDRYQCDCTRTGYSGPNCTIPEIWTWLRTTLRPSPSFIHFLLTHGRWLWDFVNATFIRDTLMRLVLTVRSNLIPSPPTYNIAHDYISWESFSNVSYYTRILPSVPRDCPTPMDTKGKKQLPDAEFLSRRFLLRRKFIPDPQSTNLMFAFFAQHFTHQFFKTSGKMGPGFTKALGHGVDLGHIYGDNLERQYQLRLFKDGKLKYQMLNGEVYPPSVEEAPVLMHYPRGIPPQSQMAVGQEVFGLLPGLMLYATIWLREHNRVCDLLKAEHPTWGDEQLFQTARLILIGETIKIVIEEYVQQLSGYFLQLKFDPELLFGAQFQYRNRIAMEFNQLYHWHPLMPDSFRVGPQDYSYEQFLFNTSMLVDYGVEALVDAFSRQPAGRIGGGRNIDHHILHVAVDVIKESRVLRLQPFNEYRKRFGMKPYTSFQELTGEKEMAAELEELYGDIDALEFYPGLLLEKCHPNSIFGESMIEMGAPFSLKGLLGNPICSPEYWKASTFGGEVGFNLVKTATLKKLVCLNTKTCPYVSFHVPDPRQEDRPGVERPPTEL

human recombinant COX-2 = target: T2, human recombinant COX-2 (Homo sapiens, UniProt P35354); assay: COX-2 inhibition assay (PGE2 EIA); format: biochemical; conditions: for inhibition at 20 µM: read-out: % inhibition at 20µM, COX-2
T2 construct: purchased Sigma–Aldrich
T2 sequence (P35354 18-604): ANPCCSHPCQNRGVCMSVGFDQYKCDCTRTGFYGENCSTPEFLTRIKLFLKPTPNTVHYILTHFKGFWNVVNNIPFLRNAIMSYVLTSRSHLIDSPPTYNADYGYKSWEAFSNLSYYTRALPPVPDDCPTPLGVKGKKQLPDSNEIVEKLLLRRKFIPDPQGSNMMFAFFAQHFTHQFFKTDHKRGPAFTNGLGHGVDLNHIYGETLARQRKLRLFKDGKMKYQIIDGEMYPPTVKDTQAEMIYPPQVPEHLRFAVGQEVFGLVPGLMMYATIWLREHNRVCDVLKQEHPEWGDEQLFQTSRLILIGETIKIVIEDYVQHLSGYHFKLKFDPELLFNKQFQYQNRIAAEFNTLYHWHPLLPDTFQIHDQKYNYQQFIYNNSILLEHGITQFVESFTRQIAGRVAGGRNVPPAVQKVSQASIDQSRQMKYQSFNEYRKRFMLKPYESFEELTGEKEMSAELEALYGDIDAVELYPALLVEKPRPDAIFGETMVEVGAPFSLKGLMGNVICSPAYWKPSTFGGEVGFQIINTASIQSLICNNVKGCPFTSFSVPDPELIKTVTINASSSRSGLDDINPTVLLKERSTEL

COX [2] = assay: Biological testing for COX-inhibiting activity, overall outcome on both isoforms; format: biochemical; conditions: for COX isoform selectivity: COX-1 versus COX-2
COX [3] = conditions: cited from earlier work; for Activity: data from the literature
[4] = biological testing of this study

Row | inhibition at 20 µM ([1]; triplicates) [%] | inhibition at 20 µM (human recombinant COX-2; 20 µM, triplicates) [%] | SMILES | Activity (COX [2]; [4]) | further results
1 | -4.7 ± 16.2 | 14.1 ± 18.4 | COC(=O)c1ccccc1C(=O)c1ccc(OCCN2CCCCC2)cc1 [Pitofenone] | Inactive | –
2 | 8.3 ± 21 | -11 ± 29.4 | O=S(=O)(O)Oc1ccc(C(c2ccc(OS(=O)(=O)O)cc2)c2ccccn2)cc1 [Picosulfate sodium] | Inactive | –
3 | 29.1 ± 9.7 | 26 ± 5 | CC/C(=C(/CC)c1ccc(OP(=O)(O)O)cc1)c1ccc(OP(=O)(O)O)cc1 [Fosfestrol] | Inactive | –
4 | -6.2 ± 6.1 | 18.4 ± 6.1 | O=C(O)COc1ccc(C(=O)c2cccs2)c(Cl)c1Cl [Ticrynafen] | Inactive | –
5 | -3.2 ± 27.9 | -1.8 ± 11.1 | CC(=O)Oc1ccc(C2(c3ccc(OC(C)=O)cc3)C(=O)Nc3ccccc32)cc1 [Oxyphenisatin acetate] | Inactive | –
6 | 13.8 ± 15.6 | -3.2 ± 6.9 | Cc1ncc(C[n+]2csc(CCO)c2C)c(N)n1 [Thiamine monochloride] | Inactive | –
7 | -11 ± 9.6 | 12.7 ± 5.1 | CNC(=C[N+](=O)[O-])NCCSCc1ccc(CN(C)C)o1 [Ranitidine] | Inactive | –
8 | 21 ± 10.9 | -11.6 ± 32.2 | C#C[C@]1(O)CC[C@H]2[C@@H]3CCC4=C(CCC(=O)C4)[C@H]3CC[C@@]21C [Norethynodrel] | Inactive | –
9 | 3.7 ± 34.6 | 3.5 ± 6 | O=C(OCC(O)CO)c1ccccc1Nc1ccnc2cc(Cl)ccc12 (stereo not drawn) [Glafenine] | Inactive | –
10 | 12.9 ± 10.3 | 14.9 ± 18.3 | N[C@@H](Cc1cc(I)c(Oc2cc(I)c(O)c(I)c2)c(I)c1)C(=O)O [Levothyroxin] | Inactive | –
11 | 3.7 ± 9.3 | -0.9 ± 13.6 | NS(=O)(=O)c1ccc(N2CCCCS2(=O)=O)cc1 [Sulthiame] | Inactive | –
12 | 36.4 ± 17.4 | 7.1 ± 18.7 | CC(C)(Oc1ccc(Cl)cc1)C(=O)O [Clofibric acid] | Inactive | –
13 | -15.1 ± 23.4 | -8.7 ± 8.2 | COCCCN1CCN(c2ccccc2OC)CC1 [Dimetholizine] | Inactive | –
14 | -2.1 ± 16.4 | -0.7 ± 6.4 | O=S(O)CNc1ccc(S(=O)(=O)c2ccc(NCS(=O)O)cc2)cc1 [Sulfoxone] | Inactive | –

More lines, now with the values behind:

Row | SMILES | inhibition at 20 µM ([1]; triplicates) [%] | inhibition at 20 µM (human recombinant COX-2; 20 µM, triplicates) [%] | Activity (COX [2]; [4]) | further results
15 | C/C=C(/C(=C/C)c1ccc(OC(C)=O)cc1)c1ccc(OC(C)=O)cc1 [Dienestrol diacetate (5), Dienestrol diacetate] | – | – | Active | IC50 ([1]; average of at least two independent experiments, triplicates, read-out: IC50 COX-1): 4.2 ± 1.5 µM; IC50 (human recombinant COX-2; average of at least two independent experiments, triplicates, read-out: IC50 COX-2): 2 ± 0.9 µM; COX isoform selectivity (COX [2]): unselective COX-inhibitor; COX isoform selectivity (COX [2]; listed as dienestrol diactetate (5)): inhibited both isoforms
16 | O=S(=O)([O-])c1ccc(N=Nc2ccc(O)cc2O)cc1.[Na+] [Acid orange 6] | – | – | Inactive | % inhibition at 20µM, COX-1 ([1]; triplicates): -1.2 ± 6.0%; % inhibition at 20µM, COX-2 (human recombinant COX-2; 20 µM, triplicates): -0.1 ± 5.6%
17 | NS(=O)(=O)c1cc(C(=O)O)c(NCc2ccco2)cc1Cl [Furosemid] | – | – | – | % inhibition at 20µM, COX-1 ([1]; triplicates): -1.07 ± 17.3%; % inhibition at 20µM, COX-2 (human recombinant COX-2): 8.7 ± 8.9%; Activity (COX [2]): Inactive
18 | CC(C)Cc1ccc([C@H](C)C(=O)O)cc1 [(S)-ibuprofen] | – | – | – | Activity (COX [3]): Active [61]
19 | COc1ccc(C(Cl)=C(c2ccc(OC)cc2)c2ccc(OC)cc2)cc1 [chlorotrianisene] | – | – | – | COX inhibition (COX [3]; identified by SEA): COX-inhibitor
20 | NS(=O)(=O)c1cc2c(cc1Cl)N=C(CSCc1ccccc1)NS2(=O)=O [Benzothiazide] | 16.6 ± 18.6 | -7.4 ± 25.8 | Inactive | –
21 | CC(C(=O)O)c1cccc(C(=O)c2ccccc2)c1 (stereo not drawn) [Ketoprofen] | – | – | – | Activity (COX [3]): Active [56]
22 | [Cl-].c1ccc(-c2nn(-c3ccccc3)[n+](-c3ccccc3)n2)cc1 [Triphenyltetrazol] | – | – | Inactive | % inhibition at 20µM, COX-1 ([1]; triplicates): 13.6 ± 14.4%; % inhibition at 20µM, COX-2 (human recombinant COX-2; 20 µM, triplicates): 2.9 ± 7.3%
23 | CC(C(=O)O)c1ccc(N2CC=CC2)c(Cl)c1 (stereo not drawn) [Pirprofen] | – | – | – | Activity (COX [3]): Active [59]
24 | CC(C(=O)O)c1ccc(C(=O)c2ccccc2)s1 (stereo not drawn) [Tiaprofenic acid] | – | – | – | Activity (COX [3]): Active [55]
25 | NS(=O)(=O)c1cc(-c2nnn[nH]2)c(NCc2cccs2)cc1Cl [Azosemide] | -9.9 ± 25.6 | -1.1 ± 4.7 | Inactive | –
26 | CNC(=O)Oc1ccc(-c2ccccc2)cc1 [Paxamate (4), Paxamate] | – | – | Active | IC50 [1]: 17.1 ± 3.1 µM; IC50 (human recombinant COX-2): > 20 µM; COX isoform selectivity (COX [2]): COX-1 selective
27 | COc1ccc2cc3[n+](cc2c1OC)CCc1cc2c(cc1-3)OCO2 [Berberin] | – | – | – | Activity (COX [3]): Inactive [50]; Activity (COX [3]; listed as Berberine): not by direct inhibition of the enzyme
28 | O=S(=O)([O-])CCNc1ccc(S(=O)(=O)c2ccc(NCCS(=O)(=O)[O-])cc2)cc1.[Na+].[Na+] [Baludon] | – | – | Inactive | % inhibition at 20µM, COX-1 ([1]; triplicates): -8.4 ± 8.7%; % inhibition at 20µM, COX-2 (human recombinant COX-2; 20 µM, triplicates): -3.7 ± 15.4%
29 | O=C(N[C@H](CO)[C@H](O)c1ccc([N+](=O)[O-])cc1)C(Cl)Cl [Chloramphenicol] | -1.7 ± 9.5 | 10.7 ± 10.7 | Inactive | –
30 | C#C[C@]1(O)CC[C@H]2[C@@H]3CCc4cc(OC)ccc4[C@H]3CC[C@@]21C [17α-ethinylestradiol-3-methylether] | – | – | – | % inhibition at 20µM, COX-1 ([1]; triplicates): 2.6 ± 11.9%; % inhibition at 20µM, COX-2 (human recombinant COX-2): -10.9 ± 31.4%; Activity (COX [2]): Inactive
31 | COc1ccc2c(c1)c(CC(=O)O)c(C)n2C(=O)c1ccc(Cl)cc1 [Indometacin] | – | – | – | Activity (COX [3]): Active [54]
32 | Cc1cccc(Nc2ccccc2C(=O)O)c1C [Mefenamic acid] | – | – | – | Activity (COX [3]): Active [58]
33 | Cc1c(Nc2ncccc2C(=O)O)cccc1C(F)(F)F [Flunixin meglumine] | – | – | – | Activity (COX [3]): Active [53]
34 | O=C(O)c1ccc(Cl)c(Cl)c1 [3,4-dichlorobenzoic acid] | -1.8 ± 14.3 | 0.1 ± 3.3 | Inactive | –
35 | C#C[C@]1(O)CC[C@H]2[C@@H]3CCc4cc(O)ccc4[C@H]3CC[C@@]21C [17α-ethinylestradiol] | 0.4 ± 16.7 | -5.2 ± 11.6 | Inactive | –
36 | CC(=O)Nc1ccc(-c2ccccc2)cc1 [p-phenylacetanilide] | – | – | Inactive | % inhibition at 20µM, COX-1 ([1]; triplicates): 5.8 ± 18.3%; % inhibition at 20µM, COX-2 (human recombinant COX-2; 20 µM, triplicates): -1.6 ± 8.3%
37 | CC(C(=O)O)c1ccc(N2Cc3ccccc3C2=O)cc1 (stereo not drawn) [Indoprofen] | – | – | – | Activity (COX [3]): Active [55]
38 | Cc1ccc(Cl)c(Nc2ccccc2C(=O)O)c1Cl [Meclofenamic acid] | – | – | – | Activity (COX [3]): Active [57]
39 | O=C(O)c1cc(/N=N/c2ccc(S(=O)(=O)Nc3ccccn3)cc2)ccc1O [Sulfasalazin] | – | – | – | COX-inhibition (COX [3]; no IC50 available): Evidence for COX-inhibition
40 | CC(C)NCC(O)COc1ccc(COCCOC(C)C)cc1 (stereo not drawn) [Bisoprolol] | -1.4 ± 7.7 | 10.2 ± 7 | Inactive | –
41 | O=C(O)CCC(=O)c1ccc(-c2ccccc2)cc1 [Fenbufen] | – | – | – | Activity (COX [3]): Active [52]
42 | C=CCOc1ccc(CC(=O)O)cc1Cl [Alclofenac] | – | – | – | Activity (COX [3]): Active [40]
43 | CC(C)(Oc1ccc(Cl)cc1)C(=O)OCCCOC(=O)c1cccnc1 [Ronifibrate] | – | – | Inactive | % inhibition at 20µM, COX-1 ([1]; triplicates): 28.2 ± 11.6%; % inhibition at 20µM, COX-2 (human recombinant COX-2; 20 µM, triplicates): 33.0 ± 5.7%
